Laboratory results as given in patent US20050159312A1, “Tryptophan aminotransferase, indole-3-pyruvate decarboxylase and indole-3-acetaldehyde oxidase as novel targets for herbicides” (priority 2002, published 2005).

Assays:
[1] = test system: indole-3-acetic acid (IEA) synthesis reaction; assay: Enzyme assay for inhibitors of indole-3-acetic acid (IEA, auxin) biosynthesis, enzyme extract from plant shoots; assay type: biochemical, Chenopodium album
Procedure: To obtain the enzyme extract, 2 g of frozen plant shoots of Chenopodium album (common lambsquarters), which had been comminuted in a pestle and mortar under liquid nitrogen, were defrosted at room temperature in 3 ml of 100 mM EPPS extraction buffer (5 mM dithiothreitol, 6 μM pyridoxal phosphate, 10 μM leupeptin, 10 μM Pefabloc SC, pH 8.5) together with a spatula-tipfull of polyvinyl pyrrolidone in the course of 30 minutes with gentle stirring. Thereafter, the plant material was centrifuged for 10 minutes at 4° C. and the supernatant was desalinified on a Sephadex G-25 column (preequilibrated with 5 mM EPPS elution buffer (1 mM dithiothreitol, 6 μM pyridoxal phosphate, 10 μM Pefabloc SC, pH 8.5). The resulting enzyme extract (400 μl) was incubated in the test assay (volume 600 μl) for 2 hours at 37° C. in the presence of 20 μM pyridoxal phosphate, 80 mM EPPS extraction buffer, 50 μM L-tryptophan, 50 μM α-ketoglutarate and 50 μM indole with addition of 100 μl of EPPS extraction buffer and 6 μl of active ingredient solution (10 mM compound I in DMSO). The control without compound I was treated with the corresponding amount of DMSO. The reaction was subsequently stopped by addition of 20 μl 7.2N HCl and 3 ml of ethyl acetate. The control assays without incubation were placed on ice and immediately treated with HCl and ethyl acetate. After reextraction with 3 ml of ethyl acetate, the organic phases (6 ml) are combined and concentrated under a nitrogen stream, and the samples are methylated with diazomethane. […] Thereafter, the amount of IEA-Me was determined immunoanalytically by means of monoclonal antibodies (100% reactivity to IEA-Me); (method of Weiler E. W., Eberle J., Mertens R., Atzorn R., Feyerabend M., Jourdan P. S., Arnscheidt A., Wieczorek U., in: Immunology in Plant Science (Wang T. L., Ed.), Society for Experimental Biology, Seminar Series 29, Cambridge University Press, Cambridge, 1986, pp. 27-58) and used as measurement for the enzyme activities.

Chenopodium album = assay: Greenhouse herbicidal activity, post-emergence; assay type: in vivo; conditions: 1.0 kg a.s./ha
From the text: (§1) The culture containers used were plastic pots comprising loamy sand with approximately 3.0% humus as substrate. The seeds of the test plants were sown separately for each species. For the post-emergence treatment, the test plants were first grown to a plant height of from 3 to 15 cm, depending on the plant habit, and only then treated with the active ingredients which had been suspended or emulsified in water. To this end, the test plants were either sown directly and grown in the same containers, or they were first grown separately as seedlings and transplanted into the test containers a few days prior to treatment. […] Depending on the species, the plants were kept at from 10-25° C. or 20-35° C., respectively. The test period extended over 2 to 4 weeks. During this time, the plants were attended, and their response to the individual treatments was evaluated. Evaluation was carried out using a scale of from 0 to 100. 100 means no emergence of the plants, or complete destruction of at least the aerial parts, while 0 means no damage, or normal course of growth. The plants used in the greenhouse experiments belong to the following species: [table]

Echinocloa crus-galli = assay: Greenhouse herbicidal activity, post-emergence; assay type: in vivo; conditions: 1.0 kg a.s./ha
From the text: as §1

Pharbitis purpurea = assay: Greenhouse herbicidal activity, post-emergence; assay type: in vivo; conditions: 1.0 kg a.s./ha
From the text: as §1

Inhibition [%] ([1]; 100 μM compound I, incubation 2 hours at 37° C., control value without incubation subtracted): 73%
synthesis of indole-3-acetic acid from L-tryptophan ([1]; in vitro): inhibited
SMILES: CNC(=O)C(CNC(=O)c1ccccc1F)NC(=O)c1ccc(C(F)(F)F)cc1F (stereo not drawn) [compound I]
pMol IEA-Me/g fresh shoot weight ([1]; 100 μM compound I, incubation 2 hours at 37° C., mean from three measurements): 156.0 +/− 14.8 pMol IEA-Me/g fresh shoot weight
herbicidal efficiency (Chenopodium album): very good herbicidal efficiency
herbicidal efficiency (Echinocloa crus-galli): very good herbicidal efficiency
herbicidal efficiency (Pharbitis purpurea): very good herbicidal efficiency
